The source of these data is US5622947A, “Benzoheterocyclic compounds and vasopressin antagonist and oxytocin antagonist compositions containing a benzoheterocyclic compound” (Otsuka Pharmaceutical Co., Ltd., priority 1992, dated 1997).

Assay [1] has as its target T1, Oxytocin receptor (uterin muscle membrane preparation) (Rattus norvegicus, UniProt P70536).
T1 construct: was homogenized, which was used as a membrane; from tissue; host or cells: uterine muscle membranes from diethylstilbestrol-treated animals
T1 sequence (P70536 1-388): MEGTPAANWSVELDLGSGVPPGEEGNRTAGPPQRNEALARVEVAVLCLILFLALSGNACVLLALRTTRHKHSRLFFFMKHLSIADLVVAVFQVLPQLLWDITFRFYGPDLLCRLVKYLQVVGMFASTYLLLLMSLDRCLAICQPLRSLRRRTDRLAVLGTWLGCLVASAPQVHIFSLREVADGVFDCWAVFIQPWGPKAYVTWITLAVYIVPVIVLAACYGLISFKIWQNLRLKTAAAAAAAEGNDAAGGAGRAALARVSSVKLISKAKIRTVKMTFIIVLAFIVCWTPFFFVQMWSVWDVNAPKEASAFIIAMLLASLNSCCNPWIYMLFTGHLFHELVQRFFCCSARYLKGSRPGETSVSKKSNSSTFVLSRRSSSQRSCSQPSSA
Kind of assay: Oxytocin receptor binding assay. Conditions: [3H]-oxytocin 10^-9 M, 25°, one hour, pH 8.0, uterin muscle membrane, DES-treated. The method, boiled down: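 Rat uterine membranes (0.2 mg; DES-primed day before) incubated 1 h at 25° with [3H]-oxytocin (10^-9 M) and compound (10^-9 to 10^-5 M) in 100 mM Tris-HCl pH 8.0, 5 mM MgCl2, 1 mM EDTA, 0.1% BSA. Filter-bound radioactivity counted; nonspecific with 5×10^-6 M oxytocin; IC50 reported.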

Assay [2] deals with T2, V2 Recepter (rat kidney plasma membrane preparations) (Rattus norvegicus, UniProt Q00788).
T2 construct: rat kidney plasma membrane preparations; from tissue; host or cells: rat kidney plasma membranes
The assay is described as follows: V2 Recepter binding assay. The note with it: [3H]-Arg-vasopressin 4×10^-10 M, 4° C., pH 8.0, rat kidney plasma membrane. The method, then: Test 2: V2 Recepter binding assay
By using rat kidney plasma membrane preparations prepared according to Hechter's method [by O. Hechter: J. Bio. Chem., 2.53, 3211 (1978)], the plasma membrane (100,000 dpm, 4×10^-10 M) of [^3 H]-Arg-vasopressin and a test compound (0.6 mg, 10^-10 to 10^-5 M) were incubated at 4° C. for 3 hours in 250 μl (in total volume) of 100 mM Tris-HCl buffer (pH=8.0), containing, 5 mM MgCl2, 1 mM EDTA and 0.1% BSA. After the incubation, the mixture, the mixture was filtered by using a glass filter (GF/F) so as to separate the membrane preparation combining with vasopressin, then washed twice with the buffer (5 ml). This glass filter was taken out and mixed with liquid scintillation cocktail. The amount of [^3 H]-vasopressin combining with the membrane was measured by a liquid scintillation counter and the rate of inhibitory effect of the test compound was calculated according to the following equation: Rate of the inhibitory
C1 : the amount of [^3 H]-vasopressin combining with the membrane in the presence of the testcompound of a known amount,
(§1) C0 : the amount of [^3 H]-vasopressin combining with the membrane in the absence of the test compound,
B1 : the amount of [^3 H]-vasopressin combining with the mebrane in the presence of the excess amount of vasopressin (10^-6 M).
The results are expressed as IC50 value, which is the concentration of the test compound required to achieve the inhibitory effect in the rate of 50%, and are shown in the following Table 157.

The target in assay [3] is T3, V1 Recepter (rat liver plasma membrane preparations) (Rattus norvegicus, UniProt P30560).
T3 construct: rat liver plasma membrane preparations; from tissue; host or cells: rat liver plasma membranes
Kind of assay: V1 Recepter binding assay. The note with it: [3H]-Arg-vasopressin 2×10^-10 M, 37° C., 10 minutes, pH 8.0, rat liver plasma membrane. The method, then: Test-1: V1 Recepter binding assay
By using rat liver plasma membrane preparations prepared according to Ichiraha's method [by Akira Ichihara: J. Bio. Chem., 258, 9283 (1983)], the plasma membrane (50,000 dpm, 2×10^-10 M) of [^3 H]-Arg-vasopressin and a test compound (60 μg, 10^-8 to 10^-4 M) were incubated at 37° C. for 10 minutes in 250 μl (in total volume) of 100 mM Tris-HCl buffer (pH=8.0), containing 5 mM MgCl2, 1 mM EDTA and 0.1% BSA. After the incubation, the mixture was filtered three times by using a glass filter (GF/F) so as to separate the membrane preparation by combining with vasopressin and then washed with the buffer (5 ml). This glass filter was taken out and mixed with a liquid of scintillation cocktail. The amount of [^3 H]-vasopressin combining with the membrane was measured by liquid scintillation counter and the rate of inhibitory effect of the test compound was calculated according to the following equation: […]
C1 : the amount of [^3 H]-vasopressin combining with the membrane in the presence of the test compound of a known amount,
as §1
B1 : the amount of [^3 H]-vasopressin combining with the membrane in the presence of the excess amount of vasopressin (10^-6 M).
The results are expressed as IC50 value, which is the concentration of the test compound required to achieve the inhitory effect in the rate of 50% and are shown in the following Table 156.

Molecules are shown by their SMILES. Where a name gives a salt, the structure may show the parent alone.

T3 sequence (P30560 whole entry): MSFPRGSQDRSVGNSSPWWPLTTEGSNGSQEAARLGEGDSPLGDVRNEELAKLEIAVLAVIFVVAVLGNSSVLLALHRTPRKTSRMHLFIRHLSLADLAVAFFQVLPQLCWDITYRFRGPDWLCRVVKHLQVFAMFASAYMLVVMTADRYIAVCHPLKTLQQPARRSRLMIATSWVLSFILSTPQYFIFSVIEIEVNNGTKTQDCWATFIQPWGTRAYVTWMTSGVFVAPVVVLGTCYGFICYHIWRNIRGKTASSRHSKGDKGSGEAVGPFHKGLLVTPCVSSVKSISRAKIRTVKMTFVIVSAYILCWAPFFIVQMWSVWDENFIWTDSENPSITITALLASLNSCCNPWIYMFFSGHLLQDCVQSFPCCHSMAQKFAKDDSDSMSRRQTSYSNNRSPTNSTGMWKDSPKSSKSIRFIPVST
T2 sequence (Q00788 whole entry): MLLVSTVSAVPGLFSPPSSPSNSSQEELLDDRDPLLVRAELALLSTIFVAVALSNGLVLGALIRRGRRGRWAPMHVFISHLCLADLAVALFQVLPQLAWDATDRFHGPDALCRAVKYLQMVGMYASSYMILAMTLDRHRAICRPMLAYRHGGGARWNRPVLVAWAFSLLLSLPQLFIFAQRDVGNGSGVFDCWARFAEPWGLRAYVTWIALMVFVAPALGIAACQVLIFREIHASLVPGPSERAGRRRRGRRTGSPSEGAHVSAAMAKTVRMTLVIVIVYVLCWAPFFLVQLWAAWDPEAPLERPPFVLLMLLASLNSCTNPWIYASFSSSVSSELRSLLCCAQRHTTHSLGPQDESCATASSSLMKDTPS

Consider `COc1cc(NC(=O)c2ccccc2Cl)ccc1C(=O)N1CCCC(CC(=O)N(C)CCO)c2cc(Cl)ccc21` (centres unmarked) [Example 88, 5-[N-Methyl-N-(2-hydroxyethyl)amino]-carbonylmethyl-7-chloro-1-[2-methoxy-4-(2-chlorobenzoylamino)benzoyl]-2,3,4,5-tetrahydo-1H-benzoazepine], for which the concentration for half-maximal inhibition (IC50) in assay [1] was determined as 0.058 µM; in assay [2], 0.002 µM; in assay [3], 0.01 µM.
The matching figures for `COc1cc(NC(=O)c2ccccc2Cl)ccc1C(=O)N1CCCC(CC(=O)Nc2ccccc2Cl)c2cc(Cl)ccc21` (centres unmarked) [Example 158, 5-(2-Chloroanilino)carbonylmethyl-7-chloro-1-[2-methoxy-4-(2-chlorobenzoylamino)benzoyl]-2,3,4,5-tetrahydro-1H-benzoazepine]: 0.13 µM, 0.014 µM and 0.031 µM.
On to `C=CCN1CCN(C(=O)CC2CCCN(C(=O)c3ccc(NC(=O)c4ccccc4Cl)cc3OC)c3ccc(Cl)cc32)CC1` (centres unmarked) [Example 81, 5-(4-Allyl-1-piperazinyl)carbonylmethyl-7-chloro-1-[2-methoxy-4-(2-chlorobenzoylamino)benzoyl]-2,3,4,5-tetrahydro-1H-benzoazepine], for which the IC50 in assay [1] worked out at 0.1 µM; in assay [2], 0.01 µM; in assay [3] it was 0.023 µM.
Regarding `COc1cc(NC(=O)c2ccccc2Cl)ccc1C(=O)N1CCCC(CC(=O)NCCc2ccccn2)c2cc(Cl)ccc21` (centres unmarked) [Example 130, 5-[2-(2-Pyridyl)ethyl]aminocarbonylmethyl-7-chloro-1-[2-methoxy-4-(2-chlorobenzoylamino)benzoyl]-2,3,4,5-tetrahydro-1H-benzoazepine], the IC50 was 0.115 µM in assay [1], 0.004 µM in assay [2] and 0.018 µM in assay [3].
Take `COc1cc(NC(=O)c2ccccc2Cl)ccc1C(=O)N1CCCC(CCN2CCN(S(C)(=O)=O)CC2)c2cc(Cl)ccc21` (centres unmarked) [Example 146, 5-[2-(4-Methanesulfonyl-1-piperazinyl)ethyl]-7-chloro-1-[2-methoxy-4-(2-chlorobenzoylamino)-benzoyl]-2,3,4,5-tetrahydro-1H-benzoazepine]: the IC50 in assay [1] came to 0.154 µM; in assay [2], 0.01 µM; in assay [3] it was 0.054 µM.
On the same counts, the results for `COc1cc(NC(=O)c2ccccc2Cl)ccc1C(=O)N1CCCC(OCC[S+]([O-])c2ncc[nH]2)c2cc(Cl)ccc21` (centres unmarked) [Example 144, 5-[2-(2-Imidazolyl)sulfinylethoxy]-7-chloro-1-[2-methoxy-4-(2-chlorobenzoylamino)benzoyl] 2,3,4,5-tetrahydro-1H-benzoazepine] are 0.354 µM, 0.0099 µM and 0.055 µM.
On the same counts, the results for `COc1cc(NC(=O)c2ccccc2Cl)ccc1C(=O)N1CCCC(OCCNC2CC2)c2cc(Cl)ccc21` (centres unmarked) [Example 138, 5-(2-Cyclopropylaminoethoxy)-7-chloro-1-[2-methoxy-4-(2-chlorobenzoylamino)benzoyl]-2,3,4,5-tetrahydro-1H-benzoazepine.cndot.hydrochloride] are 0.233 µM, 0.003 µM and 0.005 µM.
In the case of `COc1cc(C(=O)N2CCCC(CC(=O)NCCN3CCOCC3)c3cc(Cl)ccc32)ccc1NC(=O)c1ccccc1Br` (centres unmarked) [Example 164, 5-(2-Morpholinoethyl)aminocarbonylmethyl-7-chlorolo-[3-methoxy-4-(2-bromobenzoylamino)-benzoyl]-2,3,4,5-tetrahydro-1H-benzoazepine], the figures for the IC50 in assay [1], in assay [2] and in assay [3] were 0.041 µM, 0.0085 µM and 0.0026 µM, respectively.
For the molecule `COc1cc(NC(=O)c2ccccc2Cl)ccc1C(=O)N1CCCC(OCCSc2ncc[nH]2)c2cc(Cl)ccc21` (centres unmarked) [Example 141, 5-[2-(2-Imidazolyl)thioethoxy]-7-chloro-1-[2-methoxy-4-(2-chlorobenzoylamino)benzoyl]-2,3,4,5-tetrahydro-1H-benzoazepine], the IC50 came to 0.193 µM in assay [1], 0.0076 µM in assay [2] and 0.056 µM in assay [3].
The matching figures for `COc1cc(NC(=O)c2ccccc2Cl)ccc1C(=O)N1CCCC(CC(=O)NCc2ccccn2)c2cc(Cl)ccc21` (centres unmarked) [Example 126, 5-(2-Pyridylmethyl)aminocarbonylmethyl-7-chlor-[2-methoxy-4-(2-chlorobenzoylamino)benzoyl]-2,3,4,5-tetrahydro-1H-benzoazepine]: 0.073 µM, 0.005 µM and 0.024 µM.
On the same counts, the results for `CNC(=O)N1CCN(CCC2CCCN(C(=O)c3ccc(NC(=O)c4ccccc4Cl)cc3OC)c3ccc(Cl)cc32)CC1` (centres unmarked) [Example 148, 5-[2-(4-Methylaminocarbonyl-1-piperazinyl)ethyl]-7-chloro-1-[2-methoxy-4-(2-chlorobenzoylamino)benzoyl]-2,3,4,5-tetrahydro-1H-benzoazepine] are 0.225 µM, 0.005 µM and 0.054 µM.
For the molecule `COc1cc(C(=O)N2CCCC(CC(=O)N(C)CCN(C)C)c3cc(Cl)ccc32)ccc1NC(=O)c1ccccc1Br` (centres unmarked) [Example 163, 5-[N-(2-Dimethylaminoethyl)-N-methylamino]-carbonylmethyl-7-chloro-1-[3-methoxy-4-(2-bromobenzoylamino)benzoyl]-2,3,4,5-tetrahydro-1H-benzoazepine], the half-maximal inhibitory concentration (IC50) in assay [2] was determined as 0.008 µM; in assay [3], 0.0018 µM.
Regarding `CC(C)NCCCCOc1ccccc1C(=O)Nc1ccc(C(=O)N2CCCC(CC(=O)N(C)C)c3cc(Cl)ccc32)cc1` (centres unmarked) [Example 162, 5-Dimethylaminocarbonylmethyl-7-chloro-1-{4-[2-(4-isopropylaminobutoxy)benzoylamino]-benzoyl}-2,3,4,5-tetrahydro-1H-benzoazepine], the IC50 was 0.13 µM in assay [2] and 0.0092 µM in assay [3].
The matching figures for `CCN(CCN(C)C)C(=O)COC1CCCN(C(=O)c2ccc(NC(=O)c3ccccc3Br)c(OC)c2)c2ccc(Cl)cc21` (centres unmarked) [Example 165, 5-[N-(2-Dimethylaminoethyl)-N-ethylamino]-carbonylmethoxy-7-chloro-[3-methoxy-4-(2-bromobenzoylamino)benzoyl]-2,3,4,5-tetrahydro-1H-benzoazepine]: 0.0043 µM and 0.0036 µM.
The matching figures for `COc1cc(NC(=O)c2ccccc2Cl)ccc1C(=O)N1CCCC(CC(=O)NCCN(C)C)c2cc(Cl)ccc21` (centres unmarked) [Example 89, 5-(2-Dimethylaminoethylamino)carbonylmethyl-7-chloro-1-[2-methoxy-4-(2-chlorobenzoylamino)benzoyl]-2,3,4,5-tetrahydro-1H-benzoazepine.cndot.hydrochloride]: 0.0025 µM and 0.009 µM.

By IC50 is commonly meant the concentration that inhibits the measured activity by half. A lower IC50 goes with inhibition by little substance.
